From ChEMBL document CHEMBL1201862, “PubChem BioAssay data set” (2004)
Calls of active or inactive are those of the source.

Legend:
[1] = target: T1, Hexokinase HKDC1 (Homo sapiens, UniProt Q2TB90); assay: activation of HKDC1 glucose phosphorylation – biochemical, W721R variant, dose response (AID 504730); format: functional
T1 sequence (Q2TB90 whole entry): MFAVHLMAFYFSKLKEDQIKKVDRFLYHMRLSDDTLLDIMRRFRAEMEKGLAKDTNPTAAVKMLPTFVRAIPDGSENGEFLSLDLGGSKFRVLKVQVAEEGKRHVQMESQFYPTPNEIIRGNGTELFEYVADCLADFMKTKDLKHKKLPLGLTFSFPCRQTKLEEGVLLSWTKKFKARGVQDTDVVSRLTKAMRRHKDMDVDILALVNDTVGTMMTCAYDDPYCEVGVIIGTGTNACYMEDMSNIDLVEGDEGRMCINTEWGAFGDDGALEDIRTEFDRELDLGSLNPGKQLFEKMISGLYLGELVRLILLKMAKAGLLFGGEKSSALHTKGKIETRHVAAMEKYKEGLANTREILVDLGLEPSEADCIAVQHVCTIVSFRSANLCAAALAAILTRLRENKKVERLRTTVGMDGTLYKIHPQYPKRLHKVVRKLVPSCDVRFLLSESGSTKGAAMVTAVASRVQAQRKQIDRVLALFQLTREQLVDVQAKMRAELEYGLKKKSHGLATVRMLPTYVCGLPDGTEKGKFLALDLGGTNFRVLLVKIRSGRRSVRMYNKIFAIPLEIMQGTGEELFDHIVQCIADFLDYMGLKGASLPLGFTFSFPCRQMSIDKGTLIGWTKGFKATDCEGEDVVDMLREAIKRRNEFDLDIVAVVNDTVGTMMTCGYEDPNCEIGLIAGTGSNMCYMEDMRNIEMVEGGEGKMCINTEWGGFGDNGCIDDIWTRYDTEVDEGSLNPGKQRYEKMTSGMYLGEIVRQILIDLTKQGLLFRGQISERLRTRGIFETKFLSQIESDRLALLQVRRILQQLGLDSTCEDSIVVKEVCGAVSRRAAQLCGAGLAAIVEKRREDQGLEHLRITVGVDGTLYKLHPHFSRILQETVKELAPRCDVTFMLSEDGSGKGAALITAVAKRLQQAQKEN

[2] = target: Hexokinase-1 (Homo sapiens, UniProt P19367); assay: HK1 enzyme activation by HKDC1 hits – biochemical, selectivity assay for HKDC1 activator project, dose response (AID 504762); format: functional
Sequence of Hexokinase-1 (P19367 whole entry): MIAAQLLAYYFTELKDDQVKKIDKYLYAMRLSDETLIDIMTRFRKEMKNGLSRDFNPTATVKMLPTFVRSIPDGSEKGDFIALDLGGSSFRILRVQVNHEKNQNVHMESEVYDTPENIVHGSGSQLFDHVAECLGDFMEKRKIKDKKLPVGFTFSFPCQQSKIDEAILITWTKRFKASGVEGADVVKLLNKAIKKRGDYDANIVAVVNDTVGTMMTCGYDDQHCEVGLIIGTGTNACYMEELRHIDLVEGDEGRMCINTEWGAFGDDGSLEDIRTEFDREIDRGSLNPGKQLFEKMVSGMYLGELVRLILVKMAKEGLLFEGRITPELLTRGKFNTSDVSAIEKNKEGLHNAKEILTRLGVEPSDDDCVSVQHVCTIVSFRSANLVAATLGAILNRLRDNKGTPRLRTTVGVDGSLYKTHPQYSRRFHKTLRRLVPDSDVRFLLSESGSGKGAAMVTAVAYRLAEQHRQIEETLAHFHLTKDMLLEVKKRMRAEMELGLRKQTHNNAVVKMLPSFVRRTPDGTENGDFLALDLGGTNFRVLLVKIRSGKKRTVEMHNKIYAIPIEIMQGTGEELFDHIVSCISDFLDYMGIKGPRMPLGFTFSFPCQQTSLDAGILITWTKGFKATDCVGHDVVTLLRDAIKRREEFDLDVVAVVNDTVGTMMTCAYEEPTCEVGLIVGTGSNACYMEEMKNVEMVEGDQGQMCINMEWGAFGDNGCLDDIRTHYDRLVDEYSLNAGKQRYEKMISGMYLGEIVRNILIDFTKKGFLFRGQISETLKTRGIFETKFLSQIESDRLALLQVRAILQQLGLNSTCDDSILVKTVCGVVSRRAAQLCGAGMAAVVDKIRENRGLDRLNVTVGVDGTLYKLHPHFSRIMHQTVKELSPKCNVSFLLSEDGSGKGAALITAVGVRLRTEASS

[3] = target: Glucose-6-phosphate 1-dehydrogenase (Homo sapiens, UniProt P11413); assay: inhibition of Homo sapiens G6PD, dose series – biochemical, fluorescence, selectivity assay for P. falciparum G6PD inhibitor project, dose response (AID 504792); format: functional
[4] = target: Kappa-type opioid receptor (Homo sapiens, UniProt P41145); assay: SAR analysis of small molecule agonists of the kappa opioid receptor via a luminescent beta-arrestin assay - Set 3. [Related pubchem assays (depositor defined):AID1777, AID1785, AID1786, AID1966, AID2133, AID2136, AID2284, AID2500]; format: functional
Sequence of Kappa-type opioid receptor (P41145 whole entry): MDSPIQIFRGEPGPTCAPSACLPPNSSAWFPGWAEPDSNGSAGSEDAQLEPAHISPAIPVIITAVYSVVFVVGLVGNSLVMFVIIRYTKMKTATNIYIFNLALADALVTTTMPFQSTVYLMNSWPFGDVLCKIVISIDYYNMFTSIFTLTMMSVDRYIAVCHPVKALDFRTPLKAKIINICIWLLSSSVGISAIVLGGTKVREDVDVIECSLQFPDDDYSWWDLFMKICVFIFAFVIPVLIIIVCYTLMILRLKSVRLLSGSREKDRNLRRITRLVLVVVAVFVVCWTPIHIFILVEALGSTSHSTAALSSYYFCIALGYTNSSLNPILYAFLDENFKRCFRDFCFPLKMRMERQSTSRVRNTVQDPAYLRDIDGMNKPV

[5] = target: T2, Coagulation factor XII (Homo sapiens, UniProt P00748); assay: Factor XIIa Dose Response Confirmation from Single Well HTS. [Related pubchem assays (depositor defined):AID701]; format: functional
T2 sequence (P00748 whole entry): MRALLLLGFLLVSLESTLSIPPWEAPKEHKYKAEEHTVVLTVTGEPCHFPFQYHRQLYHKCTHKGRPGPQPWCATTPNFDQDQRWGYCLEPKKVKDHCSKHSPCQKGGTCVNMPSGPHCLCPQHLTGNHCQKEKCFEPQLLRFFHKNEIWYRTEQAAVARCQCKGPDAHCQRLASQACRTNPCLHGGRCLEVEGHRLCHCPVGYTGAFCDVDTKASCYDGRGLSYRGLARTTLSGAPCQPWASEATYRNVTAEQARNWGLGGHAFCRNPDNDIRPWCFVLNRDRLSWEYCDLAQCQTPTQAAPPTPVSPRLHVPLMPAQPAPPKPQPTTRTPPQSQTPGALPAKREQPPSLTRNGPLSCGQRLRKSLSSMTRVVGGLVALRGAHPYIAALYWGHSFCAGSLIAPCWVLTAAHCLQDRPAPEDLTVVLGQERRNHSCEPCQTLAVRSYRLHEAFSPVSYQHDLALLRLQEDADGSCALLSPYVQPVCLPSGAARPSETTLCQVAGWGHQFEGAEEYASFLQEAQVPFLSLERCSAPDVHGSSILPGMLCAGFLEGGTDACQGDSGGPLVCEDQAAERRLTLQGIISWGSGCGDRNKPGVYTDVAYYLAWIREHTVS

[6] = cells; format: functional
[7] = target: Ion channel NompC (Danio rerio, UniProt Q7T1G6); assay: Dose response cell-based high-throughput screening assay for agonists of the transient receptor potential channel N1 (TRPN1). [Related pubchem assays (depositor defined):AID1424, AID1448]; format: functional
Sequence of Ion channel NompC (Q7T1G6 whole entry): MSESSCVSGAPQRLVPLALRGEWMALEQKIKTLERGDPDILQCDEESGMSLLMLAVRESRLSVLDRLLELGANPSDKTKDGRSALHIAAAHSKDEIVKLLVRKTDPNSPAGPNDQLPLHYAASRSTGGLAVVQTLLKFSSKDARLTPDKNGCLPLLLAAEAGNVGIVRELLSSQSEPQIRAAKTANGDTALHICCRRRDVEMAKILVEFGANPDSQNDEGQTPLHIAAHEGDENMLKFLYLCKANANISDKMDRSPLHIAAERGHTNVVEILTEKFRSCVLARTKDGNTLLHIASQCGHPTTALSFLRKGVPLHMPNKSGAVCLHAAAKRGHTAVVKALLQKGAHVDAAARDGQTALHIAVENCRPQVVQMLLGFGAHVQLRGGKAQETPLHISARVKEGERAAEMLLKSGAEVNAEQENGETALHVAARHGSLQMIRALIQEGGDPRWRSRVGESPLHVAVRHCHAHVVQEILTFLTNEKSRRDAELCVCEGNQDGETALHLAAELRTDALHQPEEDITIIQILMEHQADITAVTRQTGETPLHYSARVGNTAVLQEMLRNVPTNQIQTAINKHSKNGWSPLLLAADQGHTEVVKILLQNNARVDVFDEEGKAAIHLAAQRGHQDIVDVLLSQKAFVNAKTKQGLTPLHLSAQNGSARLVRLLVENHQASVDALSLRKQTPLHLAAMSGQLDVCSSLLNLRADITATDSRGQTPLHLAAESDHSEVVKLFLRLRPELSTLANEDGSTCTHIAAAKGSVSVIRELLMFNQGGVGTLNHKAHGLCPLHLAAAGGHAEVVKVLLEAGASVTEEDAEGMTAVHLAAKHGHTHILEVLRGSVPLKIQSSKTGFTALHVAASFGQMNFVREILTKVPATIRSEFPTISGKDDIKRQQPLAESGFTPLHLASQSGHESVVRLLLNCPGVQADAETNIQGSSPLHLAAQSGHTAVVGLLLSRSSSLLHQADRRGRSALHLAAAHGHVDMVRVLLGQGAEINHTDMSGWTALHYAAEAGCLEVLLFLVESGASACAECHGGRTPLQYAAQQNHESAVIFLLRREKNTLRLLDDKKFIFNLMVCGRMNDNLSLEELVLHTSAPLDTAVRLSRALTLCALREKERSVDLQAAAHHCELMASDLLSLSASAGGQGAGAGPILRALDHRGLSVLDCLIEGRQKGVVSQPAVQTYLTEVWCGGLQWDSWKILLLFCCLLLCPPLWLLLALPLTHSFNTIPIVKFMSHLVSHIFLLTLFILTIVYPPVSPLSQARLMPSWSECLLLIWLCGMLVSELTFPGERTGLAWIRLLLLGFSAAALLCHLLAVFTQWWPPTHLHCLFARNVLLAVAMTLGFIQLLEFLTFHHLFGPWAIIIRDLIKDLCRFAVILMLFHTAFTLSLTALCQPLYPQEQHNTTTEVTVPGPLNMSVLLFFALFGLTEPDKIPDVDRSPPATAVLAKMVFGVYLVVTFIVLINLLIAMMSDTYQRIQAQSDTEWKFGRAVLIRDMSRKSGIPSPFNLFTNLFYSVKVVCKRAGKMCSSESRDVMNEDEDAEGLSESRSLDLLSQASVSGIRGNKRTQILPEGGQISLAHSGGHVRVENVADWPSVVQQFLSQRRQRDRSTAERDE

[8] = target: UDP-galactopyranose mutase (Mycobacterium tuberculosis, UniProt P9WIQ1); assay: Inhibitors of Mycobacterium tuberculosis UDP-galactopyranose mutase (UGM) enzyme Measured in Biochemical System Using Plate Reader - 2105-02_Inhibitor_Dose_CherryPick_Activity. [Related pubchem assays (depositor defined):AID504439]
Sequence of UDP-galactopyranose mutase (P9WIQ1 whole entry): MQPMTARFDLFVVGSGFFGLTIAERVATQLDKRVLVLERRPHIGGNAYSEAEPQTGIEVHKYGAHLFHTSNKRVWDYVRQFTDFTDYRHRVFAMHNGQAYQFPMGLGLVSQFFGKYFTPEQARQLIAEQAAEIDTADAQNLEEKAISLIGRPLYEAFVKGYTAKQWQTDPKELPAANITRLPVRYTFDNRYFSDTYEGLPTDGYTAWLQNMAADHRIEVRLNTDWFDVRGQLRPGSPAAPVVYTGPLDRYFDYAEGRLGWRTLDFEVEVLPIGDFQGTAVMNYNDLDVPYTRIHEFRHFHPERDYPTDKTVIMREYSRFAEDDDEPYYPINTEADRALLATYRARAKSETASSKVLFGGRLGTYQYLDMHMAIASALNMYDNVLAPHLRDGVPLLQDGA

[9] = target: T3, Heat shock factor protein 1 (Mus musculus, UniProt P38532); assay: enhancement of HSF1-driven luciferase signal – cell-based, NIH3T3, luminescence, dose retest, confirmation (AID 435004); format: functional;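 further: stress induced by proteasome inhibitor MG132 added 30 min after compound; luciferase reporter driven by HSF1 response element in NIH3T3 cells; actives raise luminescence as potentiators of the MG132 stress response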
T3 sequence (P38532 whole entry): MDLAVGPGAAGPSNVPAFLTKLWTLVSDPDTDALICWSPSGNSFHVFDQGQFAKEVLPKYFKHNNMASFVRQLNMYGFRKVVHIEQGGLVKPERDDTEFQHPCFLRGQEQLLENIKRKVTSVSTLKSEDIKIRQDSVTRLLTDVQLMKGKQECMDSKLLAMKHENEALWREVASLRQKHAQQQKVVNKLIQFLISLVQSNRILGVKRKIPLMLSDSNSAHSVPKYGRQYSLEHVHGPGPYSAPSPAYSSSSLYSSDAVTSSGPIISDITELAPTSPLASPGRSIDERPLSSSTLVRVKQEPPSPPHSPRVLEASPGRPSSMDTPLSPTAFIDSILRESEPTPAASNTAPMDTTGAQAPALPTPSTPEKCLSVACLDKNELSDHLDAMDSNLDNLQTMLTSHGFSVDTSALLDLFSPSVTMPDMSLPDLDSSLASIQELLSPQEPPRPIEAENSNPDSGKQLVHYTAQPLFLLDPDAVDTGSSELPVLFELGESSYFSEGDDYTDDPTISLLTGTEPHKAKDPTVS

[10] = target: T4, Mucolipin-3 (Homo sapiens, UniProt Q8TDD5); assay: Fluorescence counterscreen assay for […] agonists: dose response cell-based high-throughput screening assay to identify agonists of the transient receptor potential channel ML3 (TRPML3). [Related pubchem assays: 1424, 1448 ]; format: functional
T4 sequence (Q8TDD5 whole entry): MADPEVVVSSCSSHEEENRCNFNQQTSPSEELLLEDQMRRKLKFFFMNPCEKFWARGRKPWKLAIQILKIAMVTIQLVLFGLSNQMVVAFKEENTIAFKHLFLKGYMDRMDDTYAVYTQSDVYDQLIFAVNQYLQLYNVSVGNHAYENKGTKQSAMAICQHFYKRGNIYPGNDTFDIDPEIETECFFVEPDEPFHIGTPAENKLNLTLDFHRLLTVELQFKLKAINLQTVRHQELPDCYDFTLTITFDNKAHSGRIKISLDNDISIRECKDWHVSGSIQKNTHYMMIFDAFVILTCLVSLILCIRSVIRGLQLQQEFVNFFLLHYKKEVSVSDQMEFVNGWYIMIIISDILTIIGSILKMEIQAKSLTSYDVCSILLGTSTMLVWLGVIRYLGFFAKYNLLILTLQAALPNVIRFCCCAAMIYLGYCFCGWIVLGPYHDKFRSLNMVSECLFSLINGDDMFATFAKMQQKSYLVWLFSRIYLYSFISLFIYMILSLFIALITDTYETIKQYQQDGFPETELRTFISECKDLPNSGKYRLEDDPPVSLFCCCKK

[11] = target: T5, Cannabinoid receptor 1 (Homo sapiens, UniProt P21554); assay: SAR analysis of antagonists of the Cannabinoid Receptor 1 using an Image-Based Assay - Set 4. [Related pubchem assays (depositor defined):AID2013, AID2026]; format: functional
T5 sequence (P21554 whole entry): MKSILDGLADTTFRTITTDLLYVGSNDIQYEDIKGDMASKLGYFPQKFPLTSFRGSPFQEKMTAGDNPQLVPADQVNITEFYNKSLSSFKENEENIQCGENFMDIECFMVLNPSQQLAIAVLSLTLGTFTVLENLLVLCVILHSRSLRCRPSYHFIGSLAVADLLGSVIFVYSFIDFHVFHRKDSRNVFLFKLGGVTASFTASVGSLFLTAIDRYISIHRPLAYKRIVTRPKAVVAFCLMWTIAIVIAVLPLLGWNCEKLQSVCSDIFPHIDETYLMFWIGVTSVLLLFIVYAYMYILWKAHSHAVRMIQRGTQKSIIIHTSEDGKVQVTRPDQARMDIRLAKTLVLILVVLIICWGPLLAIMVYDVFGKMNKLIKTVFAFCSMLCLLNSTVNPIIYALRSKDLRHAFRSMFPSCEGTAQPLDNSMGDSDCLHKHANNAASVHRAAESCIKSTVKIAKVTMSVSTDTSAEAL

[12] = target: T6, Cannabinoid receptor 2 (Homo sapiens, UniProt P34972); assay: SAR analysis of agonists of the Cannabinoid Receptor 2 using an Image-Based Assay - Set 3. [Related pubchem assays (depositor defined):AID2013, AID2026]; format: functional
T6 sequence (P34972 whole entry): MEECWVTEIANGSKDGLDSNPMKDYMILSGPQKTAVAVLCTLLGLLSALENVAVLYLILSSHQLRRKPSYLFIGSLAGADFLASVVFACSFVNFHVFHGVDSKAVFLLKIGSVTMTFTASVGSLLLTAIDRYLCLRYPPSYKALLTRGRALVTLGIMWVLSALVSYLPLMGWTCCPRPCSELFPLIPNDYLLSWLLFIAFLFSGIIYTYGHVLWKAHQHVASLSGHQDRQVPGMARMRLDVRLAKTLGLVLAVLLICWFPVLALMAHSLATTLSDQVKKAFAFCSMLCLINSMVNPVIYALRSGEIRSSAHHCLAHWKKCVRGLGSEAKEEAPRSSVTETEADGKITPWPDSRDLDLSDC

[13] = target: T5, Cannabinoid receptor 1; assay: SAR analysis of agonists of the Cannabinoid Receptor 1 using an Image-Based Assay - Set 4. [Related pubchem assays (depositor defined):AID2013, AID2026]; format: functional
[14] = target: G-protein coupled receptor 55 (Homo sapiens, UniProt Q9Y2T6); assay: SAR Analysis of Selective Antagonists of GPR55 using an Image-Based Assay - Set 4. [Related pubchem assays (depositor defined):AID2013, AID2026]; format: functional;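 further: antagonism of response to 5 µM lysophosphatidylinositol agonist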
Sequence of G-protein coupled receptor 55 (Q9Y2T6 whole entry): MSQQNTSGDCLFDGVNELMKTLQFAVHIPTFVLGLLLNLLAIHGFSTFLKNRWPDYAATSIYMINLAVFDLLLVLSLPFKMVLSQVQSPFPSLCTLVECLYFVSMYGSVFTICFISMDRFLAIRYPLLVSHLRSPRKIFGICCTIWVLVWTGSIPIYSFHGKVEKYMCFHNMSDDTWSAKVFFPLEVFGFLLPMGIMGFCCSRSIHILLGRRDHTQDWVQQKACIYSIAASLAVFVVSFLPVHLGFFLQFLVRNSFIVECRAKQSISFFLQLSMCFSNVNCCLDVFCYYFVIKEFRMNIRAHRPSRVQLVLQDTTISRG

[15] = target: T6, Cannabinoid receptor 2; assay: SAR analysis of antagonists of the Cannabinoid Receptor 2 using an Image-Based Assay - Set 3. [Related pubchem assays (depositor defined):AID2013, AID2026]; format: functional
[16] = target: T7, G-protein coupled receptor 35 (Homo sapiens, UniProt Q9HC97); assay: SAR analysis of Antagonists of the GPR35 Receptor using an Image-Based Assay - Set 6. [Related pubchem assays (depositor defined):AID2013, AID2026]; format: functional
T7 sequence (Q9HC97 whole entry): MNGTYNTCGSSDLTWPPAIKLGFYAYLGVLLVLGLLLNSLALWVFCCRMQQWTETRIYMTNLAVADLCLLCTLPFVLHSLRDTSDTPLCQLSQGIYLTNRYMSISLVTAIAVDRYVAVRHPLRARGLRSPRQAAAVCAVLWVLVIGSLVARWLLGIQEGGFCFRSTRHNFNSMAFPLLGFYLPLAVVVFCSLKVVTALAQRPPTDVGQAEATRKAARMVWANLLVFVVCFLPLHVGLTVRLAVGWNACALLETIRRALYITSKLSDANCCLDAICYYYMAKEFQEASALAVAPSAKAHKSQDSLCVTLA

[17] = target: T7, G-protein coupled receptor 35; assay: SAR analysis of Agonists of the GPR35 Receptor using an Image-Based Assay - Set 4. [Related pubchem assays (depositor defined):AID2013, AID2026]; format: functional
[18] = tested on: BJ; assay: growth inhibition of engineered Ras-driven BJ cells – cell-based, alamar blue fluorescence, cherrypicked samples, dose response (AID 2631); format: functional; conditions: Homo sapiens;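 further: confirmatory dose-response assay in RAS-dependent BJ fibroblasts engineered with TERT, LT and ST, with cytotoxicity read by fluorescence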

SMILES: O=C(Nc1ccc(N2CCCC2)cc1)c1cccc(-c2cc3ccccc3oc2=O)c1
- EC50 [1]: 13.6 µM (active)
- EC50 [2]: > 80 µM (inactive)
- IC50 [3]: > 80 µM (inactive)

SMILES: Brc1ccc(CSc2nnc(-c3ccccn3)n2Cc2ccccc2)cc1
- EC50 [4]: 4.06 µM (active)

SMILES: COc1cc(OC)cc(-c2nnc(SCc3cccc(C(=O)O)c3)o2)c1
- IC50 [5]: > 50 µM (inactive)

SMILES: CCOC(=O)Cn1c2ccc(F)cc2c2nc(C)sc21
- EC50 [1]: 59.1 µM (inactive)
- IC50 [6]: 14.2 µM (active)
- EC50 [2]: 56.2 µM (inactive)

SMILES: Cc1cc2nc3c(=O)n(CCc4ccccc4)c(=O)[nH]c3nc2cc1N
- EC50 [7]: 3.55 µM (active)
- AC50 [8]: 2.29 µM (active)
- EC50 [9]: > 260 µM (inactive)
- EC50 [10]: 6.23 µM (active)

SMILES: Cc1nc(N2CCN(C(=O)c3cccs3)CC2)c2c3c(sc2n1)CCCC3
- IC50 [11]: 3.94 µM (active)
- EC50 [12]: > 32 µM (inactive)
- EC50 [13]: > 32 µM (inactive)
- IC50 [14]: 4.13 µM (active)
- IC50 [15]: > 32 µM (inactive)
- IC50 [16]: > 32 µM (inactive)
- EC50 [17]: > 32 µM (inactive)

SMILES: COc1ccc(-n2cc3c(-c4cccc(Br)c4)nnc(C)c3n2)cc1
- IC50 [11]: 0.946 µM (active)
- EC50 [12]: > 32 µM (inactive)
- EC50 [13]: > 32 µM (inactive)
- IC50 [14]: 8.04 µM (active)
- IC50 [15]: 5.4 µM (active)
- IC50 [16]: > 32 µM (inactive)
- EC50 [17]: > 32 µM (inactive)

SMILES: O=C(c1cn(-c2ccccc2)nc1-c1ccncc1)n1nnc2ccccc21
- IC50 [5]: 0.973 µM (active)

SMILES: COc1ccc2[nH]c3c(NCCC4=CCCCC4)ncnc3c2c1
- EC50 [18]: > 133 µM (inactive)
- EC50 [7]: > 29.9 µM (inactive)
- EC50 [10]: > 29.9 µM (not active)
